Like-named read-outs stand apart in the source and are kept apart here.
Assays:
HPV-16 = HPV-16 origin replication in HEK 293 cells, qPCR; type: cell-based; conditions: for Selectivity Index: HPV-16, HEK 293 cells
Protocol: (§1) An origin-containing plasmid was co-transfected with HPV-16 E1 and E2 protein expression vectors into HEK 293 cells. At 4 hr post-transfection, cells were treated with compound dilutions and the cells were incubated for 48 hr. Replication of the virus origin was detected with DpnI and exonuclease III to remove unreplicated input bacterial plasmid DNA. Remaining replicated DNA was quantified by qPCR. Toxicity was determined by trypan blue exclusion.

[1] = Toxicity in HEK 293 cells by trypan blue exclusion (HPV-16 example); type: cell-based; conditions: human
Protocol: as §1

[2] = Viability of PBMC by XTT reduction; conditions: human
[3] = Cytotoxicity in 2.2.15 cells by neutral red uptake; conditions: human
Hepatitis B virus = experiment: HBV replication in 2.2.15 cells, HBV DNA blot hybridization; conditions: for EC50: Hepatitis B virus, 168 h; for Selectivity Index: hepatitis B virus, 2.2.15 cells
HIV-192US727 = experiment: Anti-HIV assay in human PBMC, supernatant reverse transcriptase activity; conditions: for Selectivity Index: HIV-192US727, human PBMC
MT-2 cells = experiment: Cytotoxicity in MT-2 cells, flow cytometry cell counts and viability; type: cell-based, human; conditions: 72 hrs, read-out: CC50, 50% Cytotoxic concentration MT2 cells T cell leukemia
Protocol: (§2) MT-2 cells were incubated with drug for 72 hrs and harvested. Flow count beads (Beckman Coulter, Miami, Fla.) were added to the cell suspension followed by propidium iodide staining and analysis using flow cytometer and the 50% cytotoxic concentration (CC50) was calculated from the cell counts and viability.

HPV-11 = HPV-11 origin replication in HEK 293 cells, qPCR; type: cell-based; conditions: for EC90: read-out: EC90 (concentration required to reduce viral replication by 90%)
Protocol: as §1, with “HPV-11” for “HPV-16”

[4] = Cytotoxicity in HFF cells in parallel to HSV-2 assay; conditions: human, […]
[5] = Cytotoxicity in MT-2 cells, flow cytometry cell counts and viability; type: cell-based, human; conditions: human; MT-2 cells, 72 hrs
Protocol: as §2

[6] = Toxicity in HEK 293 cells by trypan blue exclusion (HPV-11 example); type: cell-based; conditions: human
Protocol: as §1, with “HPV-11” for “HPV-16”

HIV-1LAI = experiment: HIV antiviral assay in MT-2 cells, p24 reduction; conditions: Human immunodeficiency virus 1, MT2, 96 h
[7] = Cytotoxicity in HFF cells in parallel to HSV-1 assay; conditions: human, […]
[8] = African green monkey, uninfected COS7 cells
[9] = Cytotoxicity in HFF cells in parallel to cytomegalovirus assay; conditions: human, […]
MAD-1 strain of JC virus = experiment: Antiviral effect in JC virus (MAD-1) infected COS7 cells, qPCR
[10] = human
[11] = tested on: AD169 strain of human cytomegalovirus; experiment: Antiviral effect in HFF cells infected with human cytomegalovirus (AD169)
[12] = tested on: BK virus (Gardner strain); experiment: Antiviral effect in HFF cells infected with BK virus (Gardner strain), qPCR
[13] = Effect of oral compounds on body weight in Balb-c mice; type: in vivo; conditions: for body weight Day 0: before dosing; for lost % of body weight: day 6 versus day zero
Protocol: Compounds were administered at the indicated doses by oral gavage daily for 5 days. Weights measured before and on day 6 after 5 doses.

[14] = tested on: Human peripheral blood monocyte (PBMC); experiment: Viability of PBMC by XTT reduction; conditions: human PBMC, XTT reduction
[15] = Human immunodeficiency virus 1, PBMC, 168 h
[16] = HPV-11 origin replication in HEK 293 cells, 48 hr, qPCR

Question: What does the source list for `CCCCCCCCCCCCCCCCCCOCCOP(=O)(COCCn1cnc2c(=O)[nH]c(N)nc21)Oc1ccccc1` (centres unmarked) [Compound 19, phenyl octadecyloxyethyl 9-(2-phosphonomethoxyethyl)guanine]?
Answer: EC50 (HPV-16; HEK293, 48 h): 5.27 µM; Selectivity Index (HPV-16): >1.9; CC50 at 48 h [1]: > 10 µM; CC50 at 7 days [2]: 0.018 µM; CC50 at 7 days [3]: > 100 µM; EC50 (Hepatitis B virus): 43 µM; Selectivity Index (Hepatitis B virus): >2.33; Selectivity Index (HIV-192US727): >9.0; EC50 (HIV-192US727; [15]): < 0.003 µM

Question: What does the source list for `CCCCCCCCCCCCCCCCCCOCCOP(=O)(CO[C@H](COC)Cn1cnc2c(N)ncnc21)OCc1ccccc1` (stereo partly drawn) [Compound 146, benzyl octadecyloxyethyl 9-(S)-[(3-methoxy-2-phosphonomethoxy)propyl]adenine]?
Answer: CC50 at 7 days ([2]; PHA-stimulated human PBMCs): 12.5 µM; CC50 at 7 days [3]: > 100 µM; EC50 (Hepatitis B virus): 33 µM; Selectivity Index (Hepatitis B virus): >3.03; Selectivity Index (HIV-192US727): >312; EC50 (HIV-192US727; [15]): < 0.04 µM

Question: Which results are given for `CCCCCCCCCCCCCCCCCCOCCOP(=O)(CO[C@H](C)Cn1cnc2c(N)ncnc21)OCc1ccccc1` (stereo partly drawn) [Compound 74, benzyl octadecyloxyethyl 9-(R)-[(2-phosphonomethoxy)propyl]adenine]?
Answer: CC50 at 7 days ([2]; PHA-stimulated human PBMCs): 24.6 µM; CC50 at 7 days [3]: 64 µM; EC50 (Hepatitis B virus): 6.5 µM; Selectivity Index (Hepatitis B virus): 10; Selectivity Index (HIV-192US727): >4920; EC50 (HIV-192US727; [15]): < 0.005 µM

Question: Which CC50 at 7 days ([2]; PHA-stimulated human PBMCs) does the source give for `CCCCCCCCCCCCCCCCCCOCCOP(=O)(CO[C@H](C)Cn1cnc2c(=O)[nH]c(N)nc21)OCc1ccccc1` (stereo partly drawn) [Compound 73, benzyl octadecyloxyethyl 9-(R)-[(2-phosphonomethoxy)propyl]guanine] here?
Answer: 11.3 µM

Question: And the CC50 at 7 days [3]?
Answer: 63 µM

Question: What about the EC50 (Hepatitis B virus) of the same compound?
Answer: 34 µM

Question: And the “Selectivity Index” value (Hepatitis B virus)?
Answer: 1.9

Question: And the “Selectivity Index” value (HIV-192US727)?
Answer: >2260

Question: And the EC50 (HIV-192US727; [15])?
Answer: < 0.005 µM

Question: For `CCCCCCCCCCCCCCCCCCOCCOP(=O)(COCCn1cnc2c(=O)[nH]c(N)nc21)OCc1ccccc1` (single isomer, unassigned) [Compound 1b, benzyl octadecyloxyethyl 9-(2-phosphonomethoxyethyl)guanine], which CC50 (MT-2 cells) is on record?
Answer: < 0.01 µM

Question: What about the EC90 (HPV-11; [16]) of the same compound?
Answer: 1.16 µM

Question: Which CC50 at 3 days [4] does the source give for `CCCCCCCCCCCCCCCCCCOCCOP(=O)(CO[C@H](CO)Cn1ccc(=O)[nH]c1=O)OCc1ccccc1` (stereo partly drawn) [Compound 221, benzyl octadecyloxyethyl 9-(S)-[3-hydroxy-2-(phosphonomethoxy)propyl]uracil] here?
Answer: > 10 µM

Question: Which CC50 at 72 h [5] does the source give for `CCCCCCCCCCCCCCCCCCOCCOP(=O)(COCCn1cnc2c(N)ncnc21)OCc1ccccc1` (centres unmarked) [Compound 2, benzyl octadecyloxyethyl 9-(2-phosphonomethoxyethyl)adenine] here?
Answer: < 0.01 µM

Question: And the CC50 (MT-2 cells; Homo sapiens, MT2)?
Answer: < 0.01 µM

Question: And the EC50 (HPV-11; HEK293, HPV-11 origin replication in HEK 293 cells, 48 hr, qPCR)?
Answer: 0.27 µM

Question: And the “Selectivity Index” value (HPV-11; HPV-11, HEK 293 cells)?
Answer: >130

Question: And the CC50 at 48 h [6]?
Answer: > 100 µM

Question: What about the EC50 (HPV-16; HEK293, HPV-16 origin replication in HEK 293 cells, 48 hr, qPCR, read-out: EC50) of the same compound?
Answer: 0.99 µM

Question: What about the “Selectivity Index” value (HPV-16) of the same compound?
Answer: >10.1

Question: What about the CC50 at 48 h [1] of the same compound?
Answer: > 10 µM

Question: What about the CC50 at 7 days ([2]; PHA-stimulated human PBMCs) of the same compound?
Answer: 11 µM

Question: What about the EC50 (HIV-1LAI) of the same compound?
Answer: < 0.01 nM

Question: What about the CC50 at 7 days [3] of the same compound?
Answer: > 100 µM

Question: And the CC50 at 3 days [7]?
Answer: 16.6 µM

Question: What about the CC50 at 7 days [8] of the same compound?
Answer: 10.6 µM

Question: And the EC50 (Hepatitis B virus)?
Answer: 0.88 µM

Question: What about the “Selectivity Index” value (Hepatitis B virus) of the same compound?
Answer: >113

Question: What about the CC50 at 14 days [9] of the same compound?
Answer: 18.3 µM

Question: What about the EC50 (MAD-1 strain of JC virus; JC polyomavirus, COS-7, 168 h) of the same compound?
Answer: > 4 µM

Question: And the “Selectivity Index” value (MAD-1 strain of JC virus; JC virus (MAD-1), COS7 cells)?
Answer: <2.7

Question: What about the CC50 at 14 days [10] of the same compound?
Answer: 7.14 µM

Question: And the “Selectivity Index” value (HIV-192US727)?
Answer: >1100

Question: And the EC50 (HIV-192US727; [15])?
Answer: < 0.01 µM

Question: And the EC50 ([11]; Human betaherpesvirus 5, AD169, HFF, 336 h)?
Answer: 0.11 µM

Question: What about the “Selectivity Index” value ([11]; human cytomegalovirus (AD169), HFF cells) of the same compound?
Answer: 166

Question: What about the “Selectivity Index” value ([12]; BK virus (Gardner strain), HFF cells) of the same compound?
Answer: >238

Question: What about the EC50 ([12]; Betapolyomavirus hominis, HFF, 336 h) of the same compound?
Answer: < 0.03 µM

Question: For `CCCCCCCCCCCCCCCCCCOCCOP(=O)(O)CO[C@H](CO)Cn1ccc(N)nc1=O` [ODE-CDV], which “body weight Day 6” value ([13]; 20 mg/kg/day oral gavage daily for 5 days) is on record?
Answer: 16.96 ± 1.38 (6)

Question: And the “body weight Day 0” value ([13]; 20 mg/kg/day oral gavage)?
Answer: 19.88 ± 0.55 (6)

Question: What about the “lost % of body weight” value ([13]; 20 mg/kg/day) of the same compound?
Answer: 14.7%

Question: With `CCCCCCCCCCCCCCCCCCOCCOP(=O)(COCCn1cnc2c(=O)[nH]c(N)nc21)OCc1ccccc1` (single isomer, unassigned) [Compound 1a, benzyl octadecyloxyethyl 9-(2-phosphonomethoxyethyl)guanine] as the compound, how does the CC50 (MT-2 cells) read?
Answer: < 0.01 µM

Question: What about the EC90 (HPV-11; [16]) of the same compound?
Answer: 1.06 µM

Question: Which “body weight Day 6” value ([13]; 4 mg/kg/day oral gavage daily for 5 days) does the source give for `CCCCCCCCCCCCCCCCCCOCCOP(=O)(O)COCCn1cnc2c(=O)[nH]c(N)nc21` [ODE-PMEG, octadecyloxyethyl 9-[2-(phosphonomethoxy)ethyl]guanine] here?
Answer: 15.5 ± 0.514 (3)

Question: And the “body weight Day 0” value ([13]; 4 mg/kg/day oral gavage)?
Answer: 19.17 ± 0.581 (3)

Question: And the “lost % of body weight” value ([13]; 4 mg/kg/day)?
Answer: 19.1%

Question: What does the source list for `CCCCCCCCCCCCCCCCOCCCOP(=O)(COCCn1cnc2c(=O)[nH]c(N)nc21)Oc1ccccc1` (centres unmarked) [Compound 25, phenyl hexadecyloxypropyl 9-(2-phosphonomethoxyethyl)guanine]?
Answer: CC50 [14]: 0.25 µM; EC50 (HIV-192US727; HIV-192US727 infected human PBMC, 7 days, supernatant reverse transcriptase activity): < 0.002 µM

Question: Which CC50 at 7 days [2] does the source give for `CCCCCCCCCCCCCCCCCCOCCOP(=O)(CO[C@H](COC)Cn1cnc2c(N)ncnc21)Oc1ccccc1` (stereo partly drawn) [Compound 164, phenyl octadecyloxyethyl 9-(S)-[(3-methoxy-2-phosphonomethoxy)propyl]adenine] here?
Answer: 15 µM

Question: And the CC50 at 7 days [3]?
Answer: > 100 µM

Question: And the EC50 (Hepatitis B virus)?
Answer: 0.46 µM

Question: What about the “Selectivity Index” value (Hepatitis B virus) of the same compound?
Answer: >216

Question: What about the “Selectivity Index” value (HIV-192US727) of the same compound?
Answer: >37.5

Question: What about the EC50 (HIV-192US727; [15]) of the same compound?
Answer: < 0.4 µM

Reference: patent US10076533B2, “Acyclic nucleoside phosphonate diesters” (The Regents of the University of California, priority 2013, dated 2018)
